Assay results taken from patent US7304168B2, “Photo-caged fluorescent molecules” (Board of Regents, University of Texas System, priority 2003, dated 2007).
Blank lines part the entries; values can stand above or below the compound they belong to.

What was measured:
[1] = Two photon uncaging action cross section at 740 nm with Bhc-OAc as reference; assay type: physicochemical; conditions: for photolysis after 20 minutes of continuous illumination: 345 mW exiting the cuvette; for sensitivity to two photon uncaging relative to 2a: average power 590 mW exiting the cuvette
Method: To calculate δu, 6-bromo-7-hydroxycoumarin-4-ylmethyl acetate (Bhc-OAc) was used as a reference compound (Furuta, 1999; Fedoryak, 2002). The compounds tested included Compound 2a from FIG. 3 and a compound 2a′ having the structure:
Bhc-OAc, Compound 2a, and Compound 2a′ in microcuvettes were illuminated using focused infrared light ([…]) from a femtosecond-pulsed and mode locked Ti-sapphire laser. The two photon uncaging action cross section was determined using the equation (Furuta, 1999):
[formula] • where Np is the number of product molecules formed per unit time, <I0^2(t)> is the mean squared light intensity, S(r) is a unitless spatial distribution function, and the integral is over the volume of the microcuvet, and Cs is the substrate concentration. If caged compounds are photolyzed under the identical setting with the same two photon laser power, then the term <I0^2(t)>∫S^2(r)dV should be about the same for different cages. Thus, δu^a of cage “a” can be determined by comparing its rate of product formation (Np^a) with that of reference cage “b” with known δu^b according to the equation: […]
The formation of coumarins after two photon photolysis of Compound 2a and […] was quantified similarly as in the one photon uncaging experiments by measuring the fluorescence enhancement. The photolysis of Bhc-OAc was quantified by HPLC analysis as described (Furuta, 1999; Fedoryak, 2002).
Two photon photolysis was carried out using a procedure similar to the one first described by Furuta et al (Furuta, 1999). Samples in 100 mM Mops buffer (pH 7.3) were transferred to a microcuvette (Hellma 105.251-QS). The filling volume of the cuvette was […]. The laser beam from a fs-pulsed and mode-locked Ti-Sapphire laser (Mira 900-F pumped by a Verdi, Coherent, Santa Clara, Calif.) was focused into the center of the cuvette with a focusing lens (01 LPX 029/077, focal length 25 mm, Melles-Griot, Carlsbad, Calif.). After irradiation with 740 nm light, samples were collected and the formation of the products was quantified. The formation of coumarins from caged precursors 2a or 2a′ (initial concentration 10 μM) was measured by fluorescence spectroscopy. The photolysis of Bhc-OAc (initial concentration 100 μM) was followed by HPLC. Two-photon uncaging cross sections (δu) were calculated from equation (2) and the reported δu of 0.72 GM for Bhc-OAc at 345 mW laser power exiting the cuvette (Fedoryak, 2002).

[2] = 740 nm, 345 mW laser power exiting the cuvette; cited from earlier work
[3] = system: human fibroblasts; conditions: human fibroblasts loaded with Fluo-3/AM
Source text: Human fibroblasts were loaded with the calcium indicator Fluo-3/AM (Molecular Probes), and a caged and cell permeable coumarin derivative (compound 8, FIG. 6). […] Optical filters were used (coumarin excitation, 440AF21 (Omega Optical); Fluo-3 excitation, 490/20; UV uncaging 330WB80; dichroic, 61010bs; emission filter, 84101 special; all of Chroma Technology unless stated otherwise).
Fluo-3 measures cell calcium concentrations.

[4] = system: gap junction transfers in coupled human fibroblast cells; assay: Inhibition of junctional coumarin (HCCC2) transfer after localized uncaging; assay type: cell-based; conditions: human fibroblasts loaded with NPE-HCCC2-AM (1 μM); added prior to the third uncaging
Method: Coupled human fibroblast cells were loaded with NPE-HCCC2-AM (1 μM) for 40 minutes in Hanks Balanced Saline (HBS with 10 mM Hepes, 5.5 mM glucose, pH 7.3), then washed and incubated for another 15 minutes before imaging on an inverted fluorescence microscope. The time course of fluorescent intensities of HCCC2 after it was locally uncaged in the “donor” cells is shown in FIG. 10 (FHCCC2, arbitrary units, 425±5 nm excitation, 460±10 nm emission). A field diaphragm was placed in the excitation light path inside the microscope. The iris of the field diaphragm was reduced to a minimum to limit the area of UV illumination (360±20 nm) to a fraction of a cell during localized uncagings. Digital fluorescence images were taken every 15 seconds. The rates of HCCC2 diffusion are indicated under each episode of transfer. α-Glycyrrhetinic (“αG”) was added to the cells prior to the third uncaging. αG is a classical inhibitor of gap junction transfers (Rozental, et al., 2001).

[5] = at 730 nm; cited from earlier work

photolysis after 20 minutes of continuous illumination [1]: 10%
δu, two photon uncaging action cross section ([1]; estimated against Bhc-OAc (0.72 GM)): 0.68 GM
SMILES: COC(=O)CC[C@@H](NC(=O)c1cc2ccc(OC(C)c3ccccc3[N+](=O)[O-])cc2oc1=O)C(=O)OC (stereo partly drawn) [Compound 2a′]
sensitivity to two photon uncaging relative to 2a [1]: about two times more sensitive to two photon uncaging than 2a

photolysis after 20 minutes of continuous illumination [1]: 10.6%
SMILES: CC(=O)OCc1cc(=O)oc2cc(O)c(Br)cc12 [Bhc-OAc, 6-bromo-7-hydroxycoumarin-4-ylmethyl acetate]
sensitivity to two photon uncaging relative to 2a [1]: about two times more sensitive to two photon uncaging than 2a
reported δu, two photon uncaging cross section [2]: 0.72 GM

SMILES: NCCc1c[nH]cn1 [histamine]
intracellular calcium (Fluo-3 channel) [3]: induced intracellular calcium increase

SMILES: CC1(C)[C@@H](O)CC[C@]2(C)[C@H]3C(=O)C=C4[C@H]5C[C@@](C)(C(=O)O)CC[C@]5(C)CC[C@@]4(C)[C@]3(C)CC[C@@H]12 [αG, α-glycyrrhetinic acid]
inhibition of coumarin transfer through gap junctions [4]: susceptible to inhibition by αG

SMILES: COc1ccc([N+](=O)[O-])c2c1CCN2C(=O)CC[C@H](N)C(=O)O [MNI caged glutamate]
δu, two photon uncaging cross section [5]: 0.06 GM
